The record followed here is patent US8754233B2, “Pyrazolylbenzothiazole derivatives and their use as therapeutic agents” (Dermira (Canada), Inc., priority 2002, dated 2014).

pIC50: −log10 of the molar value.

The subject of one assay is IFNg on ConA 1° splenocytes. As to the kind of experiment: Inhibition of IFNγ release from ConA-stimulated splenocytes. In kind it is cell-based, mouse. Conditions: ConA-stimulated Balb/c splenocytes, 18-24 hours, ELISA. As for the experimental part:
T-lymphocytes obtained from mice spleens are a suitable sample for studying the activation properties of this immunologically important cell type. T-lymphocytes are the main regulators for inflammation. Concanavalin A (ConA) is an effective activator of T-lymphocytes, which allows T-lymphocytes to proliferate and produce inflammatory cytokines, such as Interferon (IFNγ) and regulatory cytokines, such as Interleukin 10 (IL-10).
The spleens were transferred onto mesh screen containing 10 ml of ice cold RPMI-5 (1× sodium pyruvate and 5% FBS) and gently ground with a pestle. The cell suspensions were centrifuged at 1500 rpm for 6 minutes at 4° C. […] The supernatant was discarded and the pellet washed two additional times. The cells were resuspended in RPMI-5 and the cell suspensions combined. The cells were counted and their concentration was adjusted to 2.8×10^6 cells/ml using RPMI-5.
(§1) The working concentration of ConA was […]. A 20× working concentration of Concanavalin A was […] was prepared using RPMI-5. The test compounds, dimethylsulfoxide (DMSO) negative vehicle control and staurosporine positive control were diluted twenty times using RPMI-5. Ten μL each of DMSO and staurosporine were combined with 180 μl of medium containing splenocytes in the wells, and 10 μl of 50 μg/ml ConA was immediately added. Medium without ConA was added to the control wells. […] The plates were incubated at 37° C. in 5% CO2 in humidified conditions overnight (18-24 hours) for INFγ.
At the completion of the stimulation described above, the plates were spun at 2000 rpm for 10 minutes. The supernatants (100 μl) from each well were transferred to fresh plates for INFγ analysis by ELISA.
INFγ levels in the supernatants from stimulated lymphocytes were determined with PharMingen's OptEIA™ INFγ Kit (PharMingen) according to manufacturer's directions. The data, shown in Table 2 infra, is represented as a percentage of INFγ inhibition by the following formula: INFγ inhibition=100−(AVG treatment/AVG DMSO control)*100.
The compound `COc1ccc2nc(-c3c(N4CCNCC4)n[nH]c3N)sc2c1` [4-(6-Methoxybenzothiazole)-5-piperizin-1-yl-2H-pyrazol-3-ylamine] gave a pIC50 of 5.23.

For the compound `COc1cc2sc(-c3c(NCCCN(C)C)n[nH]c3N)nc2cc1F` [N^3-(3-Dimethylaminopropyl)-4-(5-fluoro-6-methoxybenzothiazole)-1H-pyrazole-3,5-diamine], the pIC50 is 4.99.

The assay is the same for the next values; noted with them: Mus musculus, Splenocyte; ConA-stimulated Balb/c splenocytes, 18-24 hours, ELISA.
As to `CNS(=O)(=O)c1cc2sc(-c3c(N)n[nH]c3C)nc2cc1F` [2-(3-Amino-5-methyl-1H-pyrazol-4-yl)-5-fluorobenzothiazole-6-sulfonic acid methylamide], the negative-log IC50 (pIC50) is 6.43.

The compound `Cc1cc2sc(-c3cn[nH]c3N)nc2cc1F` [4-(5-Fluoro-6-methylbenzothiazol-2-yl)-2H-pyrazol-3-ylamine] had a pIC50 below 4.60.

As for `CNCc1ccc2nc(-c3c(C)n[nH]c3N)sc2c1` [5-Methyl-4-(6-methylaminomethylbenzothiazol-2-yl)-2H-pyrazol-3-ylamine], the pIC50 is 6.30.

Another assay has as its system ConA 1° splenocytes. As to the kind of experiment: Survival of ConA 1° splenocytes (cytotoxicity by MTS staining). In kind it is cell-based, mouse. The conditions noted are these: ConA-stimulated splenocytes. How it is done: as §1
(MTS). The MTS solution was made fresh and under low light. The electron coupling reagent phenazine methosulfate (PMS) was added at the time of the assay. Twenty μL of MTS solution per 100 μl of tissue culture medium was added to each well. The plates were incubated 37° C. for 4 hours for unstimulated and 18-24 ConA stimulated splenocytes. The absorbance was read at 490 nm wavelength. A kit available to do this assay is “CellTiter 96® AQ Kit AQueous Kit (G5421)” by Promega.
In turn, `COc1ccc2nc(-c3c(N4CCNCC4)n[nH]c3N)sc2c1` [4-(6-Methoxybenzothiazole)-5-piperizin-1-yl-2H-pyrazol-3-ylamine] had a pIC50 of 4.69.

The compound `COc1cc2sc(-c3c(NCCCN(C)C)n[nH]c3N)nc2cc1F` [N^3-(3-Dimethylaminopropyl)-4-(5-fluoro-6-methoxybenzothiazole)-1H-pyrazole-3,5-diamine] gave a pIC50 of around 4.60.

Staying with this assay, now noted: Mus musculus, Splenocyte, ConA-stimulated splenocytes.
In turn, `COc1cc2sc(-c3c(-c4ccncc4)n[nH]c3N)nc2cc1F` [4-(5-Fluoro-6-methoxybenzothiazol-2-yl)-5-pyridin-4-yl-2H-pyrazol-3-ylamine] showed a pIC50 below 4.60.

As to `Cc1cc2sc(-c3cn[nH]c3N)nc2cc1F` [4-(5-Fluoro-6-methylbenzothiazol-2-yl)-2H-pyrazol-3-ylamine], the pIC50 is below 4.60.

As for `Cc1n[nH]c(N)c1-c1nc2ccc(Cl)cc2s1` [4-(6-Chlorobenzothiazol-2-yl)-5-methyl-2H-pyrazol-3-ylamine], the pIC50 was below 4.60.

In turn, `CNCc1ccc2nc(-c3c(C)n[nH]c3N)sc2c1` [5-Methyl-4-(6-methylaminomethylbenzothiazol-2-yl)-2H-pyrazol-3-ylamine] gave a pIC50 of 6.05.

The next assay relates to TNFa on macrophages. Kind of assay: Inhibition of TNFα release from stimulated macrophages. The conditions noted are these: Mus musculus, Macrophage; LPS and IFN-γ stimulated primary macrophages, ELISA. In kind it is cell-based, mouse. How it is done: Peritoneal exudate macrophages were isolated by peritoneal lavage with ice-cold sterile physiological saline 24 hours after intraperitoneal injection of BALB/c mice with 0.5 mL of sterile Zymosan A (1 mg/0.5 mL 0.9% saline). […] Murine primary macrophage will get activated following incubation with LPS in the presence of sub-optimal doses of IFN-γ. […] TNF-αlevels in the supernatants from stimulated macrophages were determined with PharMingen's OptEIA TNF-α kit (PharMingen). The experiment was performed at room temperature, about 21° C., unless otherwise stated. The microwells (F8 MaxiSorp™ Loose/Nunc-Immuno Module; Gibco/BRL) were coated with 100 μl/well of capture antibody (at the recommended concentration) and incubated overnight at 4° C. […] Next, the solution was removed and the plates were washed 5× with wash buffer. The TNF-αanalysis was initiated by adding duplicate samples (100 μl/well) or standards (100 μl/well) in diluent buffer which were incubated for 2 h. The solution was removed and the plates washed 5× with wash buffer. Enzyme reagent (100 μl) containing biotinylated mouse TNF-αmonoclonal antibody and avidin-horseradish peroxidase conjugate (at concentrations recommended by the manufacturer) was added to each well. The plate was incubated for 1 hour, the solution removed, and the plates washed 7× with wash buffer. […] Colour development was terminated by adding 50 μl of 2N H2SO4. […] Peritoneal exudate macrophages were isolated by peritoneal lavage with ice-cold sterile physiological saline 24 hours after intraperitoneal injection of BALB/c mice with 0.3 ml of sterile zymosan A (1 mg/0.5 mL 0.9% saline). […] All treatments were replicated six times. Cells were incubated for an additional 24 hours, and cell free culture supernatants from each well were collected for NO and cytokine determination. The remaining cells were stained with crystal violet to determine effect of the compound on cell survival.
Background: In an ELISA, binding on a coated surface is turned into a signal by an enzyme label.
In the case of `Cc1n[nH]cc1-c1nc2ccccc2s1` [2-(3-Methyl-1H-pyrazol-4-yl)-benzothiazole], the pIC50 was below 4.60.

`Nc1n[nH]c(CCCO)c1-c1nc2ccccc2s1` [3-(5-Amino-4-benzothiazol-2-yl-2H-pyrazol-3-yl)-propan-1-ol] gave a pIC50 below 4.60.

With `COc1cc2sc(-c3c(-c4ccncc4)n[nH]c3N)nc2cc1F` [4-(5-Fluoro-6-methoxybenzothiazol-2-yl)-5-pyridin-4-yl-2H-pyrazol-3-ylamine], the pIC50 was below 4.60.

As to `Cc1n[nH]c(N)c1-c1nc2ccc(Cl)cc2s1` [4-(6-Chlorobenzothiazol-2-yl)-5-methyl-2H-pyrazol-3-ylamine], the pIC50 is below 4.60.

The compound `Nc1n[nH]cc1-c1nc2ccc(F)cc2s1` [4-(6-Fluorobenzothiazol-2-yl)-1H-pyrazol-3-ylamine] gave a pIC50 below 4.60.

As for `Nc1[nH]nc(N2CCNCC2)c1-c1nc2ccccc2s1` [4-Benzothiazol-2-yl-5-piperazin-1-yl-2H-pyrazol-3-ylamine], the pIC50 was below 4.60.

In another assay the test system is macrophages. As to the kind of experiment: Survival of macrophages. In kind it is cell-based, mouse. Conditions: Mus musculus, Macrophage; stimulated primary macrophages. How it is done: Peritoneal exudate macrophages were isolated by peritoneal lavage with ice-cold sterile physiological saline 24 hours after intraperitoneal injection of BALB/c mice with 0.3 ml of sterile zymosan A (1 mg/0.5 mL 0.9% saline). […] 1.5×10^5 cells/well were seeded in 96-well plates and followed by 3 hour incubation at 37° C. with 5% CO2 (macrophages were allowed to attach) cells were stimulated with LPS ([…]/mL) and IFN-γ (100 U/mL) in the absence or presence of the test compounds. All treatments were replicated six times. Cells were incubated for an additional 24 hours, and cell free culture supernatants from each well were collected for NO and cytokine determination. The remaining cells were stained with crystal violet to determine effect of the compound on cell survival.
As to `Cc1n[nH]cc1-c1nc2ccccc2s1` [2-(3-Methyl-1H-pyrazol-4-yl)-benzothiazole], the pIC50 was below 4.60.

The compound `COc1cc2sc(-c3c(-c4ccncc4)n[nH]c3N)nc2cc1F` [4-(5-Fluoro-6-methoxybenzothiazol-2-yl)-5-pyridin-4-yl-2H-pyrazol-3-ylamine] showed a negative logarithm of the IC50 (pIC50) below 4.60.

For `Nc1n[nH]cc1-c1nc2ccc(F)cc2s1` [4-(6-Fluorobenzothiazol-2-yl)-1H-pyrazol-3-ylamine], the negative logarithm of the IC50 (pIC50) is below 4.60.

On to `Nc1[nH]nc(N2CCNCC2)c1-c1nc2ccccc2s1` [4-Benzothiazol-2-yl-5-piperazin-1-yl-2H-pyrazol-3-ylamine], for which the pIC50 is below 4.60.

In a further assay the test system is MCP1 on HUVECS. As to the kind of experiment: Inhibition of MCP-1 release from TNFα-stimulated HUVEC. In kind it is cell-based, human. Conditions: Homo sapiens, 18-24 hours, ELISA. From the text:
The activation of endothelial cells by pro-inflammatory cytokine TNF-α leads to the production of several chemokines. The release of these chemokines play an important role in leukocyte trafficking and extravasation of leukocytes into tissue during inflammation. MCP-1 and IL-8 are among the chemokines released upon stimulation of human endothelial cells (HUVECs) by TNFα, and contribute to migration of monocytes to the sites of inflammation. Cells should not be passaged more than 6 times.
Cells were maintained and grown in tissue culture flasks (T75) in endothelial cell growth medium (EGM, Clonetics) containing 5 additional supplements (EGM-5) in medium [human recombinant endothelial growth factor (hEGF), hydrocortisone (HC), bovine brain extract (BBE), fetal bovine serum (FBS) and Gentamycin (GA)] incubated at 37° C., 5% CO2. The cells should be propagated a maximum of 20 passages.
The plates were incubated overnight at 37° C., 5% CO2 to enable the cells to attach and grow.
The working concentration of TNFα was 1,000 pg/ml. A twenty times working concentration of TNFα was 20,000 pg/ml was prepared using EGM-5. The test compounds, DMSO negative vehicle control and staurosporine positive control were diluted 20× using EGM-5. Ten μL each of the compounds, DMSO and staurosporine were combined with 180 μl of medium containing HUVEC cells. Immediately following the addition of the compounds, 10 μl of […] TNFα was added to the wells. Medium without TNFα was added to the control wells. […] The plates were incubated at 37° C. in 5% CO2 in humidified conditions overnight (18-24 hours) for TNFα.
At the completion of the stimulation, the plates were spun at 2000 rpm for 10 minutes. The supernatants from each well were transferred to fresh plates for MCP1 analysis by ELISA.
[…] were determined with PharMingen's OptEIA™ MCP1 Kit (PharMingen) according to manufacturer's instructions.
The data is represented as a percentage of MCP1 inhibition by the following formula: % MCP1 inhibition=100−(AVG treatment/AVG DMSO control)*100.
`Cc1n[nH]cc1-c1nc2ccccc2s1` [2-(3-Methyl-1H-pyrazol-4-yl)-benzothiazole] showed a pIC50 below 4.60.

The compound `Nc1n[nH]c(CCCO)c1-c1nc2ccccc2s1` [3-(5-Amino-4-benzothiazol-2-yl-2H-pyrazol-3-yl)-propan-1-ol] had a pIC50 of around 4.60.

`COc1cc2sc(-c3c(-c4ccncc4)n[nH]c3N)nc2cc1F` [4-(5-Fluoro-6-methoxybenzothiazol-2-yl)-5-pyridin-4-yl-2H-pyrazol-3-ylamine]: the negative-log IC50 (pIC50) is below 4.60.

As for `Nc1n[nH]cc1-c1nc2ccc(F)cc2s1` [4-(6-Fluorobenzothiazol-2-yl)-1H-pyrazol-3-ylamine], the pIC50 was around 4.60.

What is called pIC50 is the negative decadic logarithm of the IC50, by convention in mol/L.
